The results in this text go back to US20100221736A1, “METHOD FOR PREDICTING SUSCEPTIBILITY TO A MENTAL DISORDER” (priority 2007, published 2010).

SMILES strings stand for the structures.

Type in all cases: cell-based, human
One assay deals with GCLC. Description: GCLC protein expression by Western Blot in skin fibroblasts after t-BHQ treatment. The note with it: for increase of GCLC protein expression by t-BHQ treatment (factor): t-BHQ vs baseline. As to the method: (§1) Human fibroblast cultures were established from skin biopsies as described in Tosic et al.[8] Cells were grown with DMEM medium (0.5 l medium completed with 10 ml Ultroser-G serum, 5 ml Penicillin/Streptomycin, 5 ml sodium pyruvate (100 mM)) at 37° C. in a humidified atmosphere containing 5% CO2/95% air. Human fibroblasts near confluence after five passages were treated for 18 h with 50 μM t-BHQ in 0.05% DMSO (t-BHQ condition) or 0.05% DMSO alone (baseline condition). Cell lysis was performed on ice. Cells were washed with PBS and scraped with lysis buffer (2.37 ml scraping buffer (Tris-HCl 50 mM, pH 7.2; NaCl 150 mM; NaF 10 mM; EDTA 2 mM; EGTA 2 mM; Triton X100 1%); 100 μl Complete (1 tablet/2 ml H2O); 25 μl PMSF 100 mM; 2.5 μl DTT 1 mM). Lysates were homogenized 10 times with a 25-gauge needle, and cellular debris were cleared by centrifugation (20,000 g, 14 min, 4° C.). Protein concentration was determined by BCA protein assay. Equal amounts of protein (50 μg) were dissolved in 5× Laemmli sample buffer, separated by 12% SDS-PAGE, and electro-transferred to a PVDF membrane. Membranes were blocked (BSA 1%/milk powder 3%) overnight at 4° C. Following incubation with primary and secondary antibodies, protein was visualized by using the ECL detection system and protein abundance was quantified by densitometry analysis (Multi Genius, Bio Imaging System, Syngene). A fibroblast protein pool from 5 different individuals was used as an external control in all experiments. The results were normalized to a -Tubulin, and reported relative to the specific protein levels measured in the protein pool.

The test system of another assay is skin fibroblasts. Description: GSH content in cultured skin fibroblasts after t-BHQ treatment. The note with it: for GSH content: t-BHQ treated (50 μM, 18 h). As to the method:
(§2) Human fibroblast cultures were established from skin biopsies as described in Tosic et al.[8] Cells were grown with DMEM medium (0.5 l medium completed with 10 ml Ultroser-G serum, 5 ml Penicillin/Streptomycin, 5 ml sodium pyruvate (100 mM)) at 37° C. in a humidified atmosphere containing 5% CO2/95% air. Human fibroblasts near confluence after five passages were treated for 18 h with 50 μM t-BHQ in 0.05% DMSO (t-BHQ condition) or 0.05% DMSO alone (baseline condition). Cells were washed once with phosphate-buffer saline (PBS), trypsinized and pelleted. The pellet was washed once, taken up into PBS and frozen. GSH content and GCL activity was determined in protein extracts from fibroblasts cultures, with a fluorescence-based microtiter plate assay according to White and colleagues [White et al, 2003]. GCL activity was determined as the difference between GSH synthesis in unblocked and GSH synthesis in BSO treated wells per min and per mg protein. Protein concentration has been determined by BCA protein assay. In addition, GSH contents under untreated conditions were also routinely measured in all participants that had spent skin fibroblasts (33 controls and 39 patients) by a colorimetric GSH assay kit (Calbiochem, San Diego, USA).

Assay [1] concerns glutamate cysteine ligase (GCL). The assay can be described thus: GCL activity in cultured skin fibroblasts after t-BHQ treatment. Particulars: for increase of GCL activity after t-BHQ treatment (factor): t-BHQ vs baseline. As for the experimental part: as §2
The subject of a further assay is GCLM. Description: GCLM protein expression by Western Blot in skin fibroblasts after t-BHQ treatment. Particulars: for increase of GCLM protein expression induced by t-BHQ treatment: t-BHQ vs baseline; for GCLM protein expression: t-BHQ treated (50 μM, 18 h). As to the method:
as §1

The mark [2] stands for this setting: t-BHQ treatment, subjects with GCLC GAG TNR genotypes 7/7 & 7/9.
Setting [3] is: t-BHQ treatment, subjects with genotypes 7/8, 8/8, 8/9 & 9/9.
The mark [4] stands for this setting: fibroblasts of control subjects.
The mark [5] stands for this setting: fibroblasts of schizophrenia patients.

Consider `CC(C)(C)c1cc(O)ccc1O` [t-BHQ, tert-butylhydroquinone], for which the results for the “increase of GCLC protein expression by t-BHQ treatment (factor)” value in the assay with GCLC (controls) and in the assay on GCLC (patients) were 1.44 and 1.32, respectively. Also, the GCLC protein expression in the assay on GCLC (t-BHQ treated (50 μM, 18 h), fibroblasts of control subjects) is recorded as 64.1 ± 17.5 α-Tubulin corrected arbitrary units; in the assay with GCLC (t-BHQ treated (50 μM, 18 h), fibroblasts of schizophrenia patients) it was 45.4 ± 15.8 α-Tubulin corrected arbitrary units; in the assay with GCLC (setting [2]), 58.9±19.0; with GCLC (setting [3]) it was 45.6±13.3. The GSH content with skin fibroblasts (setting [4]) was determined as 144.9 ± 21.5 nmol GSH/mg protein; in the assay with skin fibroblasts (setting [5]), 136.3 ± 19.1 nmol GSH/mg protein. In addition, the “increase of GSH content after t-BHQ treatment (factor)” value in the assay with skin fibroblasts (very similar in patients and controls, t-BHQ vs baseline) amounted to 2.53. Further, the “increase of GCL activity after t-BHQ treatment (factor)” value in assay [1] (controls) is reported as 3.45; in assay [1] (patients), 2.95. In addition, the GCL activity stood at 0.847 ± 0.26 nmol GSH/min/mg protein in assay [1] (t-BHQ treated (50 μM, 18 h), fibroblasts of control subjects, average and standard deviation); 0.627 ± 0.16 nmol GSH/min/mg protein in assay [1] (t-BHQ treated (50 μM, 18 h), fibroblasts of schizophrenia patients, average and standard deviation); 0.784±0.246 in assay [1] (setting [2]); 0.584±0.141 in assay [1] (setting [3]). For the same compound, the “increase of GCLM protein expression induced by t-BHQ treatment” value in the assay on GCLM (control subjects) stood at 73%; in the assay on GCLM (patients), 74%. Besides, the GCLM protein expression is given as 108.0 ± 24.0 α-Tubulin corrected arbitrary units in the assay with GCLM (setting [4]) and 107.6 ± 24.1 α-Tubulin corrected arbitrary units in the assay with GCLM (setting [5]).
